# Experimental data: patent publication US7256268B1, “Human high affinity choline transporter” (University of Florida Research Foundation, priority 2000, dated 2007)
# Key:
# human HACT = biological target: T1, human HACT (Homo sapiens, UniProt Q9GZV3); test: transporter assay for high affinity choline uptake (tritiated choline chloride) in transfected or infected cells; assay type: cell-based; conditions: 10 nM of Hemicholinium-3; cells expressing recombinant human HACT (FIG. 1: SF9 cells), 27° C., 30 min
# T1 construct: expressed in transfected cells; host or cells: 293, HELA and SF9 cells (pcDNA, AAV proviral and baculoviral vectors)
# T1 sequence (Q9GZV3 1-580): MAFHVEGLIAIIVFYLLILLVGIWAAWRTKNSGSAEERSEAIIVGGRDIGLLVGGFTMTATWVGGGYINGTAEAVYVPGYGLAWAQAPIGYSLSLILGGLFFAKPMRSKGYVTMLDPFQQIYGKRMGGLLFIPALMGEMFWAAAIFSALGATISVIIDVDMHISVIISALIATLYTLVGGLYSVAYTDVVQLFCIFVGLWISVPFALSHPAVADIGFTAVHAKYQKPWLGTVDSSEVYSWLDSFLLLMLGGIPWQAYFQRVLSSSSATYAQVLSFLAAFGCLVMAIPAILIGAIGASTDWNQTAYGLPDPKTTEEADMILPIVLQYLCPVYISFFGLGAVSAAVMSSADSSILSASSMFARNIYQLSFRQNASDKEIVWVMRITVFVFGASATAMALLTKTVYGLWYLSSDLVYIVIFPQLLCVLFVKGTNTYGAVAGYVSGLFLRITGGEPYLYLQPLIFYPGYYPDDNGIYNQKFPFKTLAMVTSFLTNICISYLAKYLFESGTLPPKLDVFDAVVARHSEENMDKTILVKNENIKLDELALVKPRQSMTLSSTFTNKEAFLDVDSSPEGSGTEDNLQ
# Protocol: A transporter assay for high affinity choline uptake was carried out using 293, HELA, and SF9 cells that had been transfected or infected with expression vectors (several eukaryotic expression vectors including pcDNA, AAV proviral vector, and Baculoviral vectors were used) either with or without a cDNA encoding human HACT. Briefly, 2×10^5 cells were incubated with tritiated choline chloride and various amounts of Hemicholinium-3 in 500 microliter media (20 mM HEPES, pH 7.4, 140 mM NaCl, 4 mM KCl, 1 mM MgCl2, 1 mM CaCl2) at 27° C. for 30 min in each transporter assay. The cells were then pelleted and washed three times before they were solublized in 1N NaOH and the tritium content determined by liquid scintillation counting. […] Furthermore, the HACT activity was sensitive to 10 nM of Hemicholinium-3, which is characteristic of high affinity choline transporter. See e.g. Okuda et al. Nat. Neurosci. 3:120-5 (2000).
# [1] = test system: low affinity choline transporter, LACT; conditions: synaptosome preparations; cited from earlier work
smiles,measurement,setting,value
C[N+]1(C)CCOC(O)(c2ccc(-c3ccc(C4(O)C[N+](C)(C)CCO4)cc3)cc2)C1.[Br-].[Br-] (centres unmarked) [hemicholinium-3],sensitivity of HACT activity to Hemicholinium-3,human HACT,sensitive
same,sensitivity of the low affinity uptake system to hemicholinium-3,[1],insensitive
